System: Transport facilitation protein genes
Assay: DNA chip mRNA expression in yeast, transport facilitation protein genes (Table 5)
Type: cell-based, Saccharomyces cerevisiae S288C
Method in brief: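 S. cerevisiae S288C grown at 25° C in YPD were exposed in log phase for two hours to one toxic chemical at a growth-inhibiting, non-lethal concentration; untreated cells served as control. Poly(A) mRNA was reverse-transcribed with Cy3/Cy5-dUTP and hybridized to a whole-genome yeast DNA chip at 65° C for over 12 hours; values are fluorescence ratios versus untreated.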

**Q.** What does the source list for CCCCCCCCCCCCOS(=O)(=O)[O-].[Na+] [(18), sodium lauryl sulfate]?
**A.** The level of expressed mRNA in the presence of chemical substance/The level of expressed mRNA in the absence of chemical substance (yeast gene YGR224W): 1.3; The level of expressed mRNA in the presence of chemical substance/The level of expressed mRNA in the absence of chemical substance (yeast gene YGR260W): 0.9; The level of expressed mRNA in the presence of chemical substance/The level of expressed mRNA in the absence of chemical substance (yeast gene YGR281W): 3.1; The level of expressed mRNA in the presence of chemical substance/The level of expressed mRNA in the absence of chemical substance (yeast gene YHL035C): 1.2; The level of expressed mRNA in the presence of chemical substance/The level of expressed mRNA in the absence of chemical substance (yeast gene YHL040C): 1.0; The level of expressed mRNA in the presence of chemical substance/The level of expressed mRNA in the absence of chemical substance (yeast gene YHL047C): 1.2; The level of expressed mRNA in the presence of chemical substance/The level of expressed mRNA in the absence of chemical substance (yeast gene YHR026W): 1.1; The level of expressed mRNA in the presence of chemical substance/The level of expressed mRNA in the absence of chemical substance (yeast gene YHR092C): 1.3; The level of expressed mRNA in the presence of chemical substance/The level of expressed mRNA in the absence of chemical substance (yeast gene YHR094C): 1.4; The level of expressed mRNA in the presence of chemical substance/The level of expressed mRNA in the absence of chemical substance (yeast gene YHR175W): 1.2; The level of expressed mRNA in the presence of chemical substance/The level of expressed mRNA in the absence of chemical substance (yeast gene YIL006W): 0.9; The level of expressed mRNA in the presence of chemical substance/The level of expressed mRNA in the absence of chemical substance (yeast gene YIL022W): 0.7; The level of expressed mRNA in the presence of chemical substance/The level of expressed mRNA in the absence of chemical substance (yeast gene YIL056W): 1.2; The level of expressed mRNA in the presence of chemical substance/The level of expressed mRNA in the absence of chemical substance (yeast gene YIL088C): 1.4; The level of expressed mRNA in the presence of chemical substance/The level of expressed mRNA in the absence of chemical substance (yeast gene YJL034W): 1.0; The level of expressed mRNA in the presence of chemical substance/The level of expressed mRNA in the absence of chemical substance (yeast gene YJL212C): 0.5; The level of expressed mRNA in the presence of chemical substance/The level of expressed mRNA in the absence of chemical substance (yeast gene YJL219W): 1.2; The level of expressed mRNA in the presence of chemical substance/The level of expressed mRNA in the absence of chemical substance (yeast gene YJR077C): 0.8; The level of expressed mRNA in the presence of chemical substance/The level of expressed mRNA in the absence of chemical substance (yeast gene YJR106W): 1.3; The level of expressed mRNA in the presence of chemical substance/The level of expressed mRNA in the absence of chemical substance (yeast gene YJR121W): 1.4; The level of expressed mRNA in the presence of chemical substance/The level of expressed mRNA in the absence of chemical substance (yeast gene YKL016C): 1.7; The level of expressed mRNA in the presence of chemical substance/The level of expressed mRNA in the absence of chemical substance (yeast gene YKL146W): 0.9; The level of expressed mRNA in the presence of chemical substance/The level of expressed mRNA in the absence of chemical substance (yeast gene YKR039W): 1.1; The level of expressed mRNA in the presence of chemical substance/The level of expressed mRNA in the absence of chemical substance (yeast gene YKR067W): 1.0; The level of expressed mRNA in the presence of chemical substance/The level of expressed mRNA in the absence of chemical substance (yeast gene YLL028W): 1.2; The level of expressed mRNA in the presence of chemical substance/The level of expressed mRNA in the absence of chemical substance (yeast gene YLR081W): 0.9; The level of expressed mRNA in the presence of chemical substance/The level of expressed mRNA in the absence of chemical substance (yeast gene YLR295C): 1.5; The level of expressed mRNA in the presence of chemical substance/The level of expressed mRNA in the absence of chemical substance (yeast gene YLR348C): 1.0; The level of expressed mRNA in the presence of chemical substance/The level of expressed mRNA in the absence of chemical substance (yeast gene YLR378C): 0.7; The level of expressed mRNA in the presence of chemical substance/The level of expressed mRNA in the absence of chemical substance (yeast gene YMR011W): 1.6; The level of expressed mRNA in the presence of chemical substance/The level of expressed mRNA in the absence of chemical substance (yeast gene YMR162C): 1.1; The level of expressed mRNA in the presence of chemical substance/The level of expressed mRNA in the absence of chemical substance (yeast gene YMR203W): 0.7; The level of expressed mRNA in the presence of chemical substance/The level of expressed mRNA in the absence of chemical substance (yeast gene YNL055C): 1.7; The level of expressed mRNA in the presence of chemical substance/The level of expressed mRNA in the absence of chemical substance (yeast gene YNL259C): 2.4; The level of expressed mRNA in the presence of chemical substance/The level of expressed mRNA in the absence of chemical substance (yeast gene YNR072W): 1.0; The level of expressed mRNA in the presence of chemical substance/The level of expressed mRNA in the absence of chemical substance (yeast gene YOL119C): 1.0; The level of expressed mRNA in the presence of chemical substance/The level of expressed mRNA in the absence of chemical substance (yeast gene YOL156W): 0.9; The level of expressed mRNA in the presence of chemical substance/The level of expressed mRNA in the absence of chemical substance (yeast gene YOL163W): 0.8; The level of expressed mRNA in the presence of chemical substance/The level of expressed mRNA in the absence of chemical substance (yeast gene YOR035C): 2.1; The level of expressed mRNA in the presence of chemical substance/The level of expressed mRNA in the absence of chemical substance (yeast gene YOR130C): 1.1; The level of expressed mRNA in the presence of chemical substance/The level of expressed mRNA in the absence of chemical substance (yeast gene YOR153W): 3.1; The level of expressed mRNA in the presence of chemical substance/The level of expressed mRNA in the absence of chemical substance (yeast gene YOR273C): 3.1; The level of expressed mRNA in the presence of chemical substance/The level of expressed mRNA in the absence of chemical substance (yeast gene YOR316C): 1.0; The level of expressed mRNA in the presence of chemical substance/The level of expressed mRNA in the absence of chemical substance (yeast gene YOR332W): 1.7; The level of expressed mRNA in the presence of chemical substance/The level of expressed mRNA in the absence of chemical substance (yeast gene YOR348C): 0.9; The level of expressed mRNA in the presence of chemical substance/The level of expressed mRNA in the absence of chemical substance (yeast gene YPL036W): 0.5; The level of expressed mRNA in the presence of chemical substance/The level of expressed mRNA in the absence of chemical substance (yeast gene YPL134C): 1.3; The level of expressed mRNA in the presence of chemical substance/The level of expressed mRNA in the absence of chemical substance (yeast gene YPL147W): 3.6; The level of expressed mRNA in the presence of chemical substance/The level of expressed mRNA in the absence of chemical substance (yeast gene YPL271W): 1.3; The level of expressed mRNA in the presence of chemical substance/The level of expressed mRNA in the absence of chemical substance (yeast gene YPR192W): 0.9; The level of expressed mRNA in the presence of chemical substance/The level of expressed mRNA in the absence of chemical substance (yeast gene YPR194C): 0.9

— patent US8192962B2, “Processes for detecting toxic substances” (Daikin Industries, Ltd., priority 2001, dated 2012)
